Assay results taken from patent US6908734B2, “Sulfated CCR5 peptides for HIV-1 infection” (priority 2000, dated 2005).
Where no end group is shown, it is not given here. [ ]: non-standard residue; d: D form. The star is where a group is joined. Biotin = O=C1N[C@H]2[C@H](CS[C@H]2CCCCC(=O)*)N1; sY = N[C@@H](Cc1ccc(OS(=O)(=O)O)cc1)C(=O)O; pY = N[C@@H](Cc1ccc(OP(=O)(O)O)cc1)C(=O)O

Tests used:
[1] = biological target: T1, gp120JR-FL/CD4-IgG2 binding to the sulfopeptide 2-18 (Homo sapiens, UniProt P51681); assay: Competition ELISA: gp120JR-FL/CD4-IgG2 binding to sulfopeptide 2-18; design: species or system HIV-1; conditions: complex 1 nM, up to supraphysiologic concentrations
T1 construct: a peptide spanning CCR5 residues 2-18 and containing sulfotyrosines in positions 10 and 14; host or cells: peptide synthetic
Experimental: (§1) In a competition ELISA, peptides were captured onto the plates as described above. Inhibitor or assay buffer was added for 1 h prior to addition of gp120JR-FL/CD4-IgG2 complex (1 nM) for an additional h at room temperature. The assay was then completed as described above. Direct binding of anti-CCR5 murine MAbs to the peptides was examined as described above except that MAb was substituted for gp120/CD4-IgG2 complex and a goat anti-mouse HRP-coupled antibody was used for detection.

[2] = biological target: T2, gp120/CD4 binding to cell surface CCR5 (Homo sapiens, UniProt P51681); conditions: cited from earlier work
T2 construct: Supernatants containing soluble gp120 proteins were harvested; made in house; host or cells: gp120: 293T supernatants; CCR5: L1.2-CCR5+ cells

gp120JR-FL/CD4-IgG2 = assay: CCR5 Nt peptide ELISA with gp120JR-FL/CD4-IgG2; format: binding, HIV-1; conditions: peptide 1 μg/ml on streptavidin plate
Experimental: (§2) Streptavidin-coated ELISA plates (Pierce, Rockford, Ill.) were blocked with D-PBS/5% BSA for 2 hours at room temperature then washed three times with assay buffer (D-PBS/0.5% Tween 20/1% Fetal Bovine Serum/2% BSA). Plates were then contacted with sulfo- or phospho-peptides (1 μg/ml) for 1 hour at room temperature and washed three times with assay buffer. […] The plates were developed using the TMB substrate as described above.

gp120LAI/CD4-IgG2 = gp120LAI/CD4-IgG2 (Human immunodeficiency virus type 1 group M subtype B, UniProt P03377); conditions: peptide 1 μg/ml on streptavidin plate
Experimental: Streptavidin-coated ELISA plates (Pierce, Rockford, Ill.) were blocked with D-PBS/5% BSA for 2 hours at room temperature then washed three times with assay buffer (D-PBS/0.5% Tween 20/1% Fetal Bovine Serum/2% BSA). Plates were then contacted with sulfo- or phospho-peptides (1 μg/ml) for 1 hour at room temperature and washed three times with assay buffer. Mixtures of CD4-IgG2 (50 nM) and purified gp120 or gp120-containing supernatants in a 1:4 molar ratio were added to the plates for 1 hour at room temperature. Plates were washed three times and (HRP)-conjugated goat anti-human IgG was used to detect the presence of bound CD4-IgG2. The plates were developed using the TMB substrate as described above. Gp120/CD4-IgG2 binding to the peptides was normalized for CD4-IgG2binding to the mutant gp120 proteins.

CD4-IgG2 = CD4-IgG2 (Homo sapiens, UniProt P01730+P01834+P01859); assay: CCR5 Nt peptide ELISA with CD4-IgG2 alone; format: binding
Experimental: as §2

[3] = tested on: V3 loop-deleted gp120JR-FL/CD4-IgG2; assay: CCR5 Nt peptide ELISA with V3 loop-deleted gp120JR-FL/CD4-IgG2; format: binding, HIV-1
Experimental: as §2

PA8 = assay: ELISA: direct binding of anti-CCR5 MAb PA8 to peptides; design: species or system murine
Experimental: as §1

PA10 = assay: ELISA: direct binding of anti-CCR5 MAb PA10 to peptides; design: species or system murine
Experimental: as §1

PA11 = assay: ELISA: direct binding of anti-CCR5 MAb PA11 to peptides; design: species or system murine
Experimental: as §1

PA12 = assay: ELISA: direct binding of anti-CCR5 MAb PA12 to peptides; design: species or system murine
Experimental: as §1

PA14 = assay: ELISA: direct binding of anti-CCR5 MAb PA14 to peptides; design: species or system murine
Experimental: as §1

[4] = tested on: gp120JR-FL alanine mutants/CD4-IgG2; assay: ELISA: binding of gp120JR-FL alanine mutant/CD4-IgG2 complexes to sulfopeptide 2-18; design: species or system HIV-1
Experimental: Mutant gp120 proteins were generated using the QuickChange Kit from Stratagene (San-Diego, Calif.). Gp120JR-FL, cloned into the pPPI4 expression vector [4], served as the template for site directed mutagenesis. Nucleotide sequencing was performed to ascertain the presence of the appropriate mutation in the gp120 coding sequence. 293T cells were calcium phosphate transfected with the different mutant gp120 expression constructs. Supernatants containing soluble gp120 proteins were harvested and cleared of debris by centrifugation 24 hours post-transfection. Quantification of gp120 was performed by ELISA as previously described). Briefly, 293T supernatants were boiled for 5 minutes and denatured gp120 was captured on an ELISA plate coated with D7324 (International Enzymes Inc. Fallbrook, Calif.), a MAb that recognizes a 15 residue linear epitope in the carboxy-terminal end of gp120. Captured gp120 was detected by a mixture of anti-gp120 MAbs B12 and B13 [40], followed by incubation with a horseradish peroxidase-conjugated (HRP) anti-mouse IgG antibody (Amersham Pharmacia, Piscataway, N.J.). Optical density (O.D.) was measured at 450 nm using the ImmunoPure TMB Substrate kit (Pierce, Rockford, Ill.).
CD4-IgG2 binding to non-denatured mutant gp120 proteins also was measured. Plates coated with D7324 were used to capture native gp120 from supernatants of transiently transfected 293T cells. CD4-IgG2 (50 nM) was added to the plates and its binding was detected using an HRP-conjugated goat anti-human IgG and TMB substrate as described above.

gp120DH123/CD4-IgG2 = assay: CCR5 Nt peptide ELISA with gp120DH123/CD4-IgG2; format: binding, HIV-1; conditions: peptide 1 μg/ml on streptavidin plate
Experimental: as §2

T2 sequence (P51681 whole entry): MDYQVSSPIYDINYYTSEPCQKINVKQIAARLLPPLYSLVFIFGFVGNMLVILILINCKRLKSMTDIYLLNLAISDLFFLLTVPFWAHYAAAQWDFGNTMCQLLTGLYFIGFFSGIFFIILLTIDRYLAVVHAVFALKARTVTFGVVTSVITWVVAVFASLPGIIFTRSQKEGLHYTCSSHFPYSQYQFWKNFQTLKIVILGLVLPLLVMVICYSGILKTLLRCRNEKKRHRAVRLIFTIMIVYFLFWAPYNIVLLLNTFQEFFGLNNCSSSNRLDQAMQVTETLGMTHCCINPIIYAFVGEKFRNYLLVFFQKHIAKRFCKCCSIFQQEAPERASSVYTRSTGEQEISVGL

Compound	Inhibition of gp120JR-FL/CD4-IgG2 binding to the sulfopeptide 2-18 [1]	Block of gp120/CD4 binding to CCR5 [2]	Binding of gp120JR-FL/CD4-IgG2 to peptide (ELISA) (gp120JR-FL/CD4-IgG2)	Binding of gp120LAI/CD4-IgG2 to peptide (ELISA) (gp120LAI/CD4-IgG2)	Binding of CD4-IgG2 alone to peptide (ELISA) (CD4-IgG2)	Binding of V3 loop-deleted gp120JR-FL/CD4-IgG2 to peptide (ELISA) [3]	Binding of PA8 to peptide (ELISA) (PA8)	Binding of PA10 to peptide (ELISA) (PA10)	Binding of PA11 to peptide (ELISA) (PA11)	Binding of PA12 to peptide (ELISA) (PA12)	Binding of PA14 to peptide (ELISA) (PA14)	Effect of V3 loop crown residues on gp120 binding to the sulfopeptide ([4]; alanine mutants in the crown of the V3 loop, including the GPGR motif)	Decrease of complex binding to the sulfopeptide by C4 alanine substitutions ([4]; alanine substitutions of R419, I420, K421, Q422 and R444)	Effect of alanine substitutions of R440 and R469 on complex binding ([4]; gp120 R440A, R469A)	Decrease of complex binding to the peptide by V3 loop stem alanine mutants ([4]; gp120 alanine mutants R298, N301, T303, I322, D324, I325, R326, normalized for CD4-IgG2 binding) [fold]	Effect of alanine substitutions in other regions of gp120 on complex-peptide interactions ([4]; other regions of gp120)	Binding of gp120DH123/CD4-IgG2 to peptide (ELISA) (gp120DH123/CD4-IgG2)
Cc1ccc(-c2ccc3c(c2)C=C(C(=O)Nc2ccc(C[N+](C)(C)C4CCOCC4)cc2)CCC3)cc1.[Cl-] [TAK-779]	not inhibited	block	–	–	–	–	–	–	–	–	–	–	–	–	–	–	–
2-18: peptide spanning CCR5 residues 2-18, sulfotyrosines in positions 10 and 14, carboxy terminal GAG spacer and biotinylated lysine (DYQVSSPI[sY]DIN[sY]YTSEGAGK(Biotin))	–	–	strongest binding	did not measurably bind	did not measurably bind	did not measurably bind	avidly binds	binds avidly	binds moderately	weak	does not recognize	no effect	5-10 fold	increased complex binding	> 10	None of the alanine substitutions that we introduced in the other regions of gp120 significantly affected	–
2-18(P): analogous CCR5 Nt phosphopeptide, residues 2-18, phosphotyrosines in positions 10 and 14, GAG spacer, biotinylated lysine (DYQVSSPI[pY]DIN[pY]YTSEGAGK(Biotin))	–	–	No binding was observed	No binding was observed	–	–	avidly binds	moderately	weakly	undetectable	does not recognize	–	–	–	–	–	No binding was observed
